Values of other authors, collected in patent US4803080A (BYK Gulden Lomberg Chemische Fabrik, priority 1984, dated 1989).

## Cn1c(=O)c2[nH]cnc2n(C)c1=O [Theophylline, 1,3-dimethylxanthine]
Nolte and Neumann
  Serum theophylline levels regarded as toxic range: more than 20 μg/ml
In vivo
  Absorption from the gastrointestinal tract during the night: slowed down during the night
  Therapeutic range, plasma levels: 8-20 mg/1
